One series deals with Sup-T1 cells. It is filed as cell-based, human. Here is the method:
Sup-T1 cells were seeded at a density of 10^5 cells per well (100 μl) in 96-well flat-bottom, plates. Cells were either left untreated (control) or were pretreated for 5 min at 37° C. with the two different bpV molecules (bpV [pic] and bpV[phen]) at the indicated concentrations in a final volume of 200 μl. Next, both untreated and bpV-treated Sup-T1 cells were inoculated with the fully infectious T-tropic strain HIV-1NL4-3 (10 ng of p24). Culture medium was replaced twice a week and was supplemented with the appropriate final concentration of bpV molecules. Cells were incubated for 10 days and kinetics of viral infection was assessed by measuring in cell-free culture supernatants the major core viral p24 protein with the use of a commercial enzymatic assay (Organon Teknika). Putative toxicity of bpV molecules was assessed by adding the tetrazolium salt MTT to Sup-T1 cells that were cultured for 10 days under the constant pressure of the indicated concentrations of bpV[pic] and bpV[phen] molecules.

Series [1] deals with T-tropic recombinant luciferase-encoding HIV-1 particles. In words: Infection of PM1 cells with luciferase reporter virus, T-tropic envelope. It is filed as cell-based. To be noted: 5 min pretreatment, 72 h. From the text: Fully infectious viral entities were generated by calcium phosphate transfection of 293T with pNL4-3 vector (T-tropic virions) as described below. Recombinant luciferase-encoding virus particles pseudotyped with the appropriate Env proteins have been used in our series of investigations. Such a system provides a highly sensitive and reproducible assay to monitor single-cycle viral infection events. This test is based on the molecular construct pNL4-3-Luc-E-R+, a vector that carries the gene for firefly luciferase inserted into the nef gene of the pNL4-3 provirus and contains also a frameshift at the 5′ end of env (nt 5950) that prevents expression of the envelope glycoproteins. Progeny viruses were generated by cotransfecting 293T cells with pNL4-3-Luc-E-R+ and a plasmid DNA encoding for the appropriate envelope glycoproteins (T or macrophage-tropic). Briefly, a typical transfection experiment was performed as follow. […]
In brief, 100 μl of cell-free supernatant were discarded from each well and 25 μl of cell culture lysis buffer 5×(125 mM Tris phosphate [pH 7.8], 10 mM DTT, 5% Triton X-100, and 50% glycerol) were added to the wells before incubation at room temperature for 30 min. […] Luciferase activity was monitored using a microplate luminometer (MLX; Dynex Technologies, Chantilly, Va.). […]

In the case of K2[VO(O2)2pic].H2O [bpV[pic]], the “toxicity (MTT)” value in the series with Sup-T1 cells is given as “no toxic effect”. In series [1], the “infection (luciferase activity)” value is reported as “dose-dependent inhibition of infection”.

These data come from patent US20040131701A1, “Method to treat infectious diseases and/or to enhance antimicrobial efficacy of drugs” (Virocell Inc., priority 2000, published 2004).
